Experimental data from paper PMC10167746, “Crystal structure of MbnF: an NADPH-dependent flavin monooxygenase from Methylocystis strain SB2” (Acta Crystallographica. Section F, Structural Biology …, 2023).

B1: MbnA peptide (methanobactin MB-SB2 precursor peptide) (peptide)
peptide: IRIAKRITLNVIGRASARCASTCAATNG
notes: MbnA, precursor peptide of methanobactin MB-SB2, Methylocystis sp. strain SB2; the natural precursor may have further residues at its N-terminus; also called MB-SB2 peptide precursor; source: synthetic peptide, bought: AnaSpec (~90% pure)

How the values were obtained:
MbnF (MbnF-His) = target: T1, MbnF (MbnF-His) (Methylocystis sp. SB2, UniProt A0ACD6BAX2); assay: X-ray crystal structure, […] A; format: binding; settings: co-purified from E. coli, no FAD added; noncovalent; 'in' conformation, all three monomers of the asymmetric unit; crystals pH 6.5, 200 mM NaBr
T1 construct: gene CTY30_04200; full-length, C-terminal His6 tag kept (pET-41a, E. coli BL21(DE3)); monomer in solution (SEC), dimer in crystal

[1] = target: T2, MbnF from Methylocystis sp. strain SB2, C-terminally His6-tagged (Methylocystis sp. strain SB2); assay: native MS; ESI-MS after a SEC column (ACQUITY UPLC Protein BEH SEC) under neutral pH, isocratic 50 mM ammonium acetate pH 6.6; mixture of 1 mg/ml MbnA, 500 µM MbnF, 250 mM NaCl, 50 mM HEPES pH 7.4; settings: both partners purified
T2 construct: MbnF, Methylocystis sp. strain SB2; Computed mass 59.17 kDa as printed; also called MbnF-His; FAD-dependent oxidoreductase; source: E. coli BL21(DE3), pET-41, purified (HisTrap, Mono Q); not shown: His6, C-terminal, kept
T2 chain: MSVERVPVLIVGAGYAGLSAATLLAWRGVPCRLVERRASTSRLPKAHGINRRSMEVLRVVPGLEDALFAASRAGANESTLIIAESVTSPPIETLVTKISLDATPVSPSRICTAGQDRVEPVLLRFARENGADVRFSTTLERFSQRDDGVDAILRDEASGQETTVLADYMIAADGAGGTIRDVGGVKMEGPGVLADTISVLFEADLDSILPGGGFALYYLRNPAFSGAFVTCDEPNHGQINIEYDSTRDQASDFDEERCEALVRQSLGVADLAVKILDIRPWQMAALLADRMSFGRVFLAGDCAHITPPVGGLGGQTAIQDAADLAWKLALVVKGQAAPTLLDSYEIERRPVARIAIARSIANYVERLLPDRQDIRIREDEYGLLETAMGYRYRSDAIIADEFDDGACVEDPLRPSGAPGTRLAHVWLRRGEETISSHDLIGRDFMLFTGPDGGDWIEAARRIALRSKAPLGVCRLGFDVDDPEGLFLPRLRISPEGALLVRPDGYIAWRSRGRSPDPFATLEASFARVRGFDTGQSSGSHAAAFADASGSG

Molecule | X-ray crystal structure, 2.61 A (MbnF (MbnF-His)) | binding result [1]
Cc1cc2nc3c(=O)[nH]c(=O)nc-3n(C[C@H](O)[C@H](O)[C@H](O)COP(=O)(O)OP(=O)(O)OC[C@H]3O[C@@H](n4cnc5c(N)ncnc54)[C@H](O)[C@@H]3O)c2cc1C [FAD] | All three monomers of the asymmetric unit bound FAD in the same general conformation | 
B1 |  | binds
